In article PMC6600273, “Design, Synthesis and Anti-Platelet Aggregation Activity Study of Ginkgolide-1,2,3-triazole Derivatives” (Molecules, 2019):

System: PAF-induced platelet aggregation
Assay: In vitro antiplatelet aggregation activity assay (method of Born), PAF-induced platelet aggregation in platelet-rich plasma
Type: cell-based, New Zealand rabbits
Settings: for IC50: rabbit PRP, aggregation induced by PAF (10 nM); for antiplatelet aggregation activity, inhibition ratio in primary screening (result in words): inhibition ratio at 50 nM, Figures 3 and 4
Protocol: The in vitro antiplatelet aggregation activity of the newly synthesized 10-substituted 1,2,3-triazole-ginkgolide derivatives was tested by the method of Born. Blood samples (2 mL) from male New Zealand rabbits (2–2.5 kg body weight) were drawn into vacutainer tubes containing 200 μL of 3.2% sodium citrate. Platelet-rich plasma (PRP) was prepared by centrifuging the blood at 250× g for 10 min at 4 °C. The PRP was diluted with platelet-poor plasma obtained by further centrifuging at 3000× g for 10 min. The remaining blood was further centrifuged at 1600× g for 5 min to obtain platelet-poor plasma (PPP) as control group. Platelet aggregation was induced by PAF (10 nM) after incubating platelets with different concentrations of samples, and the maximum rate of platelet aggregation (RPA%) within 5 min was measured with a Helena Platelet aggregometer instrument. The inhibition ratio was calculated according to the following formula:Inhibition ratio (%) = (1−(RPA% of test group) / (RPA% of control group)) × 100%
In primary screening, the activities were expressed directly as inhibition ratio at 50 nM concentration. […] The values shown in the tables were calculated by linear regression from a single experimental curve with no less than four data points, each point being the mean of the percentage inhibition at a given concentration obtained from three independent experiments.

[1] = Oryctolagus cuniculus, Platelet

Row | Compound | IC50 [1] | antiplatelet aggregation activity, inhibition ratio in primary screening (result in words) | fold increase in antiplatelet aggregation activity in comparison with natural ginkgolide B (1) (ratio of IC50 values vs ginkgolide B) | IC50
1 | CC1C(=O)OC2C(O)C34C5CC(C(C)(C)C)C36C(OC(=O)C6OCc3cn(Cc6ccccc6)nn3)OC4(C(=O)O5)C12O (stereo not shown) [Compound 5ff, 10-O-(1-Benzyl-1H-1,2,3-triazole) ginkgolide B] | 5.31 ± 1.84 nM | best results | ~20 fold | 
2 | CC1C(=O)OC2C(O)C34C5CC(C(C)(C)C)C36C(OC(=O)C6OCc3cn(-c6ccccc6C#N)nn3)OC4(C(=O)O5)C12O (stereo not shown) [Compound 5p, 10-O-(1-(2-Cyanophenyl)-1H-1,2,3-triazole) ginkgolide B] | 10.2 ± 2.03 nM | best results |  | 
3 | Cc1ccccc1-n1cc(COC2C(=O)OC3OC45C(=O)OC6CC(C(C)(C)C)C32C64C(O)C2OC(=O)C(C)C25O)nn1 (stereo not shown) [Compound 5n, 10-O-(1-(2-Methylphenyl)-1H-1,2,3-triazole) ginkgolide B] | 20.6 ± 2.84 nM | best results |  | 
4 | Cc1cccc(-n2cc(COC3C(=O)OC4OC56C(=O)OC7CC(C(C)(C)C)C43C75C(O)C3OC(=O)C(C)C36O)nn2)c1 (stereo not shown) [Compound 5q, 10-O-(1-(3-Methylphenyl)-1H-1,2,3-triazole) ginkgolide B] | 44.3 ± 4.42 nM |  |  | 
5 | C[C@@H]1C(=O)O[C@H]2C[C@@]34[C@H]5C[C@@H](C(C)(C)C)[C@]36[C@@H](OC(=O)[C@@H]6O)O[C@@]4(C(=O)O5)[C@]21O [1′, ginkgolide A, reference compound] | 580 ± 50.3 nM |  |  | 
6 | CC1C(=O)OC2C(O)C34C5CC(C(C)(C)C)C36C(OC(=O)C6OCc3cn(-c6ccccc6)nn3)OC4(C(=O)O5)C12O (stereo not shown) [Compound 5a, 10-O-(1-Phenyl-1H-1,2,3-triazole) ginkgolide B] | 7.74 ± 1.89 nM | best results |  | 
7 | ginkgolide C [1″, reference compound] |  |  |  | 7540 ± 662 nM
8 | ginkgolide B [Compound 1, reference compound] |  |  |  | 130 ± 20 nM
